The source of these data is BindingDB's records for patent US11084800 (Achillion Pharmaceuticals, 2021).

The target in the experiment is Complement factor D (Homo sapiens, UniProt P00746). The experiment can be described thus: Factor D Assay. The procedure: Human Factor D (purified from human serum, Complement Technology, Inc.) at 80 nM final concentration is incubated with test compound at various concentrations for 5 min at room temperature in 50 mM Tris, 1M NaCl, pH 7.5. A synthetic substrate Z-L-Lys-SBz and DTNB (Ellman's reagent) are added to final concentrations of 100 μM each. Absorbance at 405 nm (A405) is recorded at 30 second intervals for 30 min using a microplate spectrophotometer. IC50 values are calculated by nonlinear regression of complement Factor D reaction rates as a function of test compound concentration.
Complement factor D, sequence (P00746 whole entry): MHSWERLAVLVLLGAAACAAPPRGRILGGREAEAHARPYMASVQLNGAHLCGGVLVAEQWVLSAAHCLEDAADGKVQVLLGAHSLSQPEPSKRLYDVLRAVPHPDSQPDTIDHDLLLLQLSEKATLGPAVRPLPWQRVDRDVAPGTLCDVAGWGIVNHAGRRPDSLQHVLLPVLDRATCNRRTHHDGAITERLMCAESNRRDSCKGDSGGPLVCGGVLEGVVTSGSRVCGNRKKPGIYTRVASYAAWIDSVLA

The IC50 is the concentration that inhibits the measured activity by half. Low values mean higher potency, high ones lower potency. With `CC(=O)c1nn(CC(=O)N2C[C@H]3C[C@H]3[C@H]2C(=O)N2C[C@H]3C[C@H]3C2C(=O)Nc2nc(Br)ccc2C)c2c(C)cc(-c3cnc(C)nc3)cc12` (stereo partly specified) [US11084800, Cpd No. 92], the IC50 entry is “in the range around 5.5 µM”.
